Test results taken from ChEMBL document CHEMBL1126448, “Synthesis and biological activity of putative mono-hydroxylated metabolites of velnacrine” (Bioorg Med Chem Lett, 1992).
The source made the active and inactive calls. The rule behind the calls is not given here.

What was measured:
[1] = tested on: Mus musculus; assay: Compound was evaluated for reversal of scopolamine-induced memory impairment in mice when administered subcutaneously; Not active (1-10 mg/kg); type: functional
[2] = molecular target: T1, Acetylcholinesterase (Rattus norvegicus, UniProt P37136)
T1 sequence (P37136 whole entry): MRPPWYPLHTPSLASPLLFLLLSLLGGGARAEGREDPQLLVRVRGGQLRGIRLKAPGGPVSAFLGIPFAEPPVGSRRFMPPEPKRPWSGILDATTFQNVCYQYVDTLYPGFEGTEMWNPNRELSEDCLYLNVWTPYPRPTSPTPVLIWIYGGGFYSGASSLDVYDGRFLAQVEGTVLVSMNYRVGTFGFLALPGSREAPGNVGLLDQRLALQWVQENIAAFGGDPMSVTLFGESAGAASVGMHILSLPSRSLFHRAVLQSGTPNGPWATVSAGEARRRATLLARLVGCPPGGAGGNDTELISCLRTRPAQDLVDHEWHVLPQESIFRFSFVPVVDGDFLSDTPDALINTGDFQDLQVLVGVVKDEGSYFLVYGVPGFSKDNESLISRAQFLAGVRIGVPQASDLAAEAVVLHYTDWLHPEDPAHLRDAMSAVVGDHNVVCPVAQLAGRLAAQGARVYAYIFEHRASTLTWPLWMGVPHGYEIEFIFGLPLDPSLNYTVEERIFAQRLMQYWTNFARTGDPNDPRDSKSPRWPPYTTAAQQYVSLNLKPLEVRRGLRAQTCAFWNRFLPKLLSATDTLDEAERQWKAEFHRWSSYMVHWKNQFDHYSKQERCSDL
Description: Inhibition of acetylcholinesterase

[3] = Acute toxicity in mice when administered subcutaneously; conditions: mouse, in vivo, sc
[4] = tested on: Mus musculus; assay: Compound was evaluated for reversal of scopolamine-induced memory impairment in mice when administered subcutaneously (0.31 - 5 mg/kg); type: functional; conditions: route subcutaneous
[5] = tested on: Mus musculus; assay: Compound was evaluated for reversal of scopolamine-induced memory impairment in mice when administered subcutaneously (1-10 mg/kg); type: functional
[6] = tested on: Mus musculus; assay: Compound was evaluated for reversal of scopolamine-induced memory impairment in mice when administered subcutaneously; Not active (0.16-5 mg/kg); type: functional
[7] = tested on: Mus musculus; assay: Compound was evaluated for reversal of scopolamine-induced memory impairment in mice when administered subcutaneously; type: functional

| SMILES | IC50 [2] [µM] | LD50 [3] [mg/kg] | other results |
| --- | --- | --- | --- |
| Nc1c2c(nc3cccc(O)c13)CCCC2O (centres undefined) | 27.4 | > 80 | Dose [1]: 1 mg/kg |
| Nc1c2c(nc3ccccc13)CC[C@H](O)[C@H]2O | > 100 | – | – |
| Nc1c2c(nc3ccccc13)CCCC2O (centres undefined) [VELNACRINE] | 1.3 | > 80 | Dose [4]: 0.31 mg/kg |
| Nc1c2c(nc3ccccc13)C[C@H](O)C[C@H]2O | 14.7 | > 80 | Dose [5]: 1 mg/kg |
| Nc1c2c(nc3c(O)cccc13)CCCC2O (centres undefined) | 25.1 | > 80 | Dose [1]: 1 mg/kg |
| Nc1c2c(nc3ccccc13)CC[C@H](O)[C@@H]2O | > 100 | – | – |
| Nc1c2c(nc3ccccc13)[C@H](O)CC[C@H]2O | 62.1 | > 80 | DOSE [1]: inactive |
| Nc1c2c(nc3cc(O)ccc13)CCCC2O (centres undefined) | 64.4 | > 80 | Dose [6]: 0.16 mg/kg |
| Nc1c2c(nc3ccc(O)cc13)CCCC2O (centres undefined) | 10.6 | > 80 | Dose [6]: 0.16 mg/kg |
| Nc1c2c(nc3ccccc13)[C@H](O)CC[C@@H]2O | 4.6 | > 80 | Dose [7]: 3 mg/kg |
| Nc1c2c(nc3ccccc13)C[C@H](O)C[C@@H]2O | 5.4 | > 80 | Dose [5]: 1 mg/kg |
